Measurements taken from patent US7078059B2, “Treatment of bone diseases” (Shire Holdings AG, priority 2000, dated 2006).

Tests used:
[1] = tested on: osteoclasts cultured on bone slices; assay: In vitro bone resorption assay (osteoclasts on bovine bone slices, CrossLaps); type: cell-based, rat; conditions: for Bone resorption: significance of activation/inhibition vs baseline; for Effect on bone resorption / bone resorbing activity of mature osteoclasts, in words: LA number = ng/ml lanthanum, lanthanum (III) ion = any of the concentrations tested (100-15000 ng/ml), bafilomycin Al 10 nM
Excerpt: The method of osteoclast culture on bone slices was originally described by Boyde et al. (1984) and by Chambers et al. (1984). For cell culture, we used a method slightly modified from the original methods (Lakkakorpi et al. 1989, Lakkakorpi and Väänänen, 1991). The rate of bone resorption in the cultures was originally determined by counting the number of resorption pits on each bone or dentine slice using a microscope with phase contrast objectives (Sundquist et al. 1990). Later, the pits were visualized using Wheat Germ Agglutinin lectin that specifically binds to the resorbed area in bone (Selander et al. 1994), making it possible to quantify the total resorbed area using a microscope and computer-assisted image analysis system (Laitala and Väänänen 1994, Hentunen et al. 1995). We used a commercially available method (CrossLaps for cultures, Osteometer Biotech, Herlev, Denmark) to detect the amount of collagen cross-links released into the culture medium as an index of the bone resorption rate (Bagger et al., 1999).
The study protocol uses a method where osteoclasts are cultured on bone slices and allowed to resorb bone. The system is ideal for determining the effect of drug candidates on the bone resorbing activity of osteoclasts. Drug candidates are added into the cell cultures at the beginning of the culture period, and the osteoclasts allowed to resorb bone for 3 days. The amount of bone resorbed during the culture period is determined and compared to the amount of bone resorbed in control cultures (those cultured in the absence of drug candidates).
Transverse 0.1 mm thick slices of cortical bone were cut from the diaphysis of fresh bovine femurs (Atria Slaughterhouse, Oulu, Finland) using a low-speed diamond saw, cleaned by ultrasonication in multiple changes of sterile distilled water, and stored at 4° C. before use. Long bones were removed from 1-day-old rat pups killed by decapitation. […] The resulting suspension of dispersed cells and bone fragments was agitated using a plastic pipette. Larger fragments were allowed to sediment for a few seconds and the supernatant was seeded onto the bone slices pre-wetted in the medium. After a settling period of 30 minutes at 37° C., the bone slices were washed by dipping in fresh medium, and then transferred to wells in 24-well culture dishes containing osteoclast culture medium. The bone slices were incubated in a humidified atmosphere of 95% air and 5% carbon dioxide at 37° C. for 72 hours.
After the culture period, the amount of bone resorption was determined by measuring the amount of collagen cross-links released into the culture medium using a commercial kit (CrossLaps for cultures, Osteometer Biotech) according to the manufacturer s instructions. The number of osteoclasts in each culture was determined by microscopic counting of the amount of TRAP-positive multinuclear cells, and the results are given as the number of collagen cross-links released per one osteoclast.
In the bone resorption assay, the amount of medium CrossLaps (nM) released into the culture medium was determined and the number of osteoclasts in the corresponding cultures calculated. The medium CrossLaps amounts were divided with the osteoclast numbers in the corresponding cultures, and the results are given on Table 1 as relative medium CrossLaps amounts per osteoclasts. The relative values were obtained by dividing each individual value with the mean value of the baseline group.

[2] = tested on: mouse bone marrow derived osteoprogenitor cells; assay: In vitro osteoblast differentiation assay (cellular alkaline phosphatase); type: cell-based; conditions: for Osteoblast differentiation: significance of activation/inhibition vs baseline
Excerpt: We have established a culture model in which mouse bone marrow derived osteoprogenitor cells first proliferate and then differentiate to osteoblasts capable of forming mineralized bone nodules (Qu et al. 1998, Qu et al. 1999). We confirmed this by following the expression of several markers of the osteoblastic phenotype and by studying the morphology of cultures at light and electron microscopic level. […] Thus, this culture system fulfills requirements of an in vitro model useful for studying differentiation of osteoprogenitor cells into bone synthesizing osteoblasts. […] Animals were killed by cervical dislocation. Both femora were removed and the soft tissues were detached aseptically. Metaphyses from both ends were cut off and bone marrow cells were collected by flushing the diaphysis with culture medium: phenol red-free-α-modified essential medium (α-MEM (Gibco BRL, Paisley, UK)). […] The cells were cultured for 6 days and half of the media […] days. […] Cells were washed with warm PBS and adherent cells were detached using trypsin-EDTA. […] The test substances were added at the beginning of the secondary culture without estrogen, and every time when the medium was changed. The number of osteoblasts formed was determined by measuring cellular alkaline phosphatase (ALP) activity in the culture. […] Louis, Mo., USA), and overnight freezing. ALP activity was determined colorimetrically using p-nitrophenylphosphate as substrate at pH 9.7 and determining the optical density at 405 nm. In parallel, protein contents of the wells were determined by the BIO-RAD protein assay, and the specific ALP activity is expressed as units/mg protein. […] Osteoblast differentiation was determined by measuring cellular alkaline phosphatase (ALP) activities and total protein amounts from cell lysates. The ALP activities were divided with the corresponding protein amounts to obtain specific activities of ALP. The results are shown as relative specific activities obtained by dividing each individual value with the mean value of the baseline group.

[3] = tested on: iliac crest of growing immature dogs
Protocol: The specimens taken from the iliac crest of growing immature dogs were analysed. The group was divided into a control and treatment group. The treatment group received 1000 mg/Kg/day of lanthanum carbonate administered orally twice daily. The groups were run for 13 weeks, after which time samples of bone were taken vertically through the iliac crest, embedded in methyl methacrylate based resin, sectioned and stained with toluidine blue and Von Kossa stain.

osteoclasts = conditions: extracellular application; cited from earlier work
[4] = tested on: limb bud mesodermal cells; conditions: organoid cultures; cited from earlier work

O.O.O.O.O=C([O-])[O-].O=C([O-])[O-].O=C([O-])[O-].[La+3].[La+3] [LA, lanthanum carbonate tetrahydrate]
Effect on amount of CrossLaps released into the culture medium or on the osteoclast number, in words ([1]; 100-15000 ng/ml lanthanum): no significant effect
Bone resorption ([1]; Dose 100 ng/ml): 0
Bone resorption ([1]; Dose 500 ng/ml): 0
Bone resorption ([1]; Dose 1000 ng/ml): 0
Bone resorption ([1]; Dose 5000 ng/ml): 0
Bone resorption ([1]; Dose 15000 ng/ml): 0
Effect on bone resorption / bone resorbing activity of mature osteoclasts, in words ([1]; listed as lanthanum): Some inhibition of bone resorption
Effect on bone resorption / bone resorbing activity of mature osteoclasts, in words ([1]; listed as lanthanum (III) ion): no statistically significant effects
Effect on osteoblast differentiation, in words ([2]; 100 ng/ml lanthanum): stimulate osteoblast differentiation
Osteoblast differentiation ([2]; Dose 100 ng/ml): + (One character (+ or −) means a p-value between 0.05 and 0.01)
Osteoblast differentiation ([2]; Dose 500 ng/ml): 0
Osteoblast differentiation ([2]; Dose 1000 ng/ml): 0
Osteoblast differentiation ([2]; Dose 5000 ng/ml): − − −
Osteoblast differentiation ([2]; Dose 15000 ng/ml): − − −
Effect on osteoblast differentiation, in words ([2]; LA number = ng/ml lanthanum, lanthanum (III) ion = 100-15000 ng/ml, 17-estradiol 10^−10 M): clear dose-dependent response
Bone formation in growing dogs ([3]; dose of 2,000 mg/kg/day lanthanum): enhanced bone formation
Bone volume and density compared to control animals ([3]; growing dogs, dose of 2,000 mg/kg/day lanthanum): significant increase
Other bone parameters investigated, treated vs control group ([3]; growing immature dogs, 1000 mg/Kg/day of lanthanum carbonate orally twice daily, 13 weeks, iliac crest): no statistically significant difference
Cytosolic calcium in osteoclasts (osteoclasts): concentration-dependant elevation of cytosolic calcium
Calcium accumulation [4]: reduced calcium accumulation
Endochondral mineralization [4]: inhibited endochondral mineralization
